{
  "source": "patent US20240228518A1",
  "about": "“NOVEL ORGANOTIN SILICATE COMPOUNDS, PREPARATION METHODS THEREOF AND PHOTORESIST COMPOSITION CONTAINING THE SAME” (JSI SILICONE CO., priority 2022, published 2024)",
  "key": {"[1]": {"assay": "Stability in water (precipitation) of solution with acetic acid", "type": "physicochemical", "method": "Since the photoresist composition included acetic acid, stability of tetrakis(triacetoxystannyl) silicate in water was able to be improved. When water was added at 5% to a 5% tetrakis(triacetoxystannyl) silicate solution, it was confirmed that precipitation occurred immediately. However, when acetic acid was added, precipitation was able to be prevented. It was confirmed that precipitation occurred after 3 minutes in a 10% acetic acid solution, after 3 hours in a 20% solution, and after 5 days in a 30% solution. Besides, the amount of precipitation was decreased as the acetic acid was added. Regarding a large amount of acetic acid, since a hydrolysis rate of an acetoxy group decreased according to le Chatelier's law, stability in water was improved."}, "[2]": {"assay": "Solubility experiment in various solvents", "type": "physicochemical", "source_text": "[Experimental Example 1] Solubility Experiment of tetrakis(triphenylstannyl) Silicate\nFor manufacturing a thin film including the tetrakis(triphenylstannyl) silicate compound prepared in Example 1, solubility in various solvents was experimented and is shown in the following Tables 2 and 3: […]"}},
  "data": [
    {"smiles": "CC(=O)[O][Sn]([O]C(C)=O)([O]C(C)=O)[O][Si]([O][Sn]([O]C(C)=O)([O]C(C)=O)[O]C(C)=O)([O][Sn]([O]C(C)=O)([O]C(C)=O)[O]C(C)=O)[O][Sn]([O]C(C)=O)([O]C(C)=O)[O]C(C)=O", "note": "[Example 14, tetrakis(triacetoxystannyl) silicate]", "values": [
      {"measurement": "Time until precipitation occurred", "setting": "[1]; water added at 5% to 5% solution, no acetic acid", "result": "immediately"},
      {"measurement": "Time until precipitation occurred", "setting": "[1]; water added, 10% acetic acid solution", "result": 3, "unit": "min"},
      {"measurement": "Time until precipitation occurred", "setting": "[1]; water added, 20% acetic acid solution", "result": 180, "unit": "min"},
      {"measurement": "Time until precipitation occurred", "setting": "[1]; water added, 30% acetic acid solution", "result": 7200, "unit": "min"}
    ]},
    {"smiles": "c1cc[c]([Sn]([O][Si]([O][Sn]([c]2ccccc2)([c]2ccccc2)[c]2ccccc2)([O][Sn]([c]2ccccc2)([c]2ccccc2)[c]2ccccc2)[O][Sn]([c]2ccccc2)([c]2ccccc2)[c]2ccccc2)([c]2ccccc2)[c]2ccccc2)cc1", "note": "[Example 1, tetrakis(triphenylstannyl) silicate]", "values": [
      {"measurement": "Solubility", "setting": "[2]; Chloroform", "result": "highest solubilites and ◯"},
      {"measurement": "Solubility", "setting": "[2]; Ethyl lactate (EL)", "result": "Δ"},
      {"measurement": "Solubility", "setting": "[2]; THF", "result": "highest solubilites and ◯"},
      {"measurement": "Solubility", "setting": "[2]; gamma-Butyrolactone (GBL)", "result": "Δ"}
    ]}
  ]
}
